This is an account of results in patent US20220380309A1, “CHOLINE METABOLISM INHIBITORS” (President and Fellows of Harvard College, priority 2018, published 2022).

Usually EC50 stands for the concentration that produces a half-maximal response. The term IC50 denotes the concentration at which inhibition is half-maximal.

The test system of one assay is E. coli MS69-1. Briefly: Choline TMA-lyase activity (TMA generation) in cut gene cluster-harboring bacteria. Type of assay: cell-based, Escherichia coli. Conditions: 1 mM choline-d9, 3.5 hours, 37° C., read-out: EC50 against E. coli MS69-1.
For `CN1CC=CC(O)C1` (centres unmarked) [drawing 203], the EC50 stood at 27 µM.

With `CN1CC=C[C@H](O)C1` [drawing 204], the EC50 was 22 µM.

Take `CN1CC=C[C@@H](O)C1` [drawing 205]: the 50% effective concentration (EC50) came out at 64 µM.

The subject of a further assay is fecal sample. As to the kind of experiment: Choline TMA-lyase activity in a fecal suspension ex vivo. The class given is cell-based. Particulars: TMA generation, fecal sample 1:10 in Mega media, 1 mM choline-d9, 18 h, 37° C.; read-out: EC50 against fecal sample.
As to `CN1CC=CC(O)C1` (centres unmarked) [drawing 203], the 50% effective concentration (EC50) was found to be 78 µM.

Regarding `CN1CC=C[C@H](O)C1` [drawing 204], the concentration giving a half-maximal response (EC50) amounted to 60 µM.

For a further assay, the system named is P. mirabilis ATCC 29906. As to the kind of experiment: Choline TMA-lyase activity (TMA generation) in cut gene cluster-harboring bacteria. The class given is cell-based, Proteus mirabilis. Conditions: 1 mM choline-d9, 3.5 hours, 37° C., read-out: EC50 against P. mirabilis ATCC 29906.
With `CN1CC=CC(O)C1` (centres unmarked) [drawing 203], the EC50 is 97 µM.

For `CN1CC=C[C@H](O)C1` [drawing 204], the EC50 was 92 µM.

For the compound `CN1CC=C[C@@H](O)C1` [drawing 205], the EC50 stood at 366 µM.

The target in another assay is CutC (Oleidesulfovibrio alaskensis, UniProt Q30W70). As to the kind of experiment: biochemical. Type of assay: biochemical.
CutC, sequence (Q30W70 whole entry): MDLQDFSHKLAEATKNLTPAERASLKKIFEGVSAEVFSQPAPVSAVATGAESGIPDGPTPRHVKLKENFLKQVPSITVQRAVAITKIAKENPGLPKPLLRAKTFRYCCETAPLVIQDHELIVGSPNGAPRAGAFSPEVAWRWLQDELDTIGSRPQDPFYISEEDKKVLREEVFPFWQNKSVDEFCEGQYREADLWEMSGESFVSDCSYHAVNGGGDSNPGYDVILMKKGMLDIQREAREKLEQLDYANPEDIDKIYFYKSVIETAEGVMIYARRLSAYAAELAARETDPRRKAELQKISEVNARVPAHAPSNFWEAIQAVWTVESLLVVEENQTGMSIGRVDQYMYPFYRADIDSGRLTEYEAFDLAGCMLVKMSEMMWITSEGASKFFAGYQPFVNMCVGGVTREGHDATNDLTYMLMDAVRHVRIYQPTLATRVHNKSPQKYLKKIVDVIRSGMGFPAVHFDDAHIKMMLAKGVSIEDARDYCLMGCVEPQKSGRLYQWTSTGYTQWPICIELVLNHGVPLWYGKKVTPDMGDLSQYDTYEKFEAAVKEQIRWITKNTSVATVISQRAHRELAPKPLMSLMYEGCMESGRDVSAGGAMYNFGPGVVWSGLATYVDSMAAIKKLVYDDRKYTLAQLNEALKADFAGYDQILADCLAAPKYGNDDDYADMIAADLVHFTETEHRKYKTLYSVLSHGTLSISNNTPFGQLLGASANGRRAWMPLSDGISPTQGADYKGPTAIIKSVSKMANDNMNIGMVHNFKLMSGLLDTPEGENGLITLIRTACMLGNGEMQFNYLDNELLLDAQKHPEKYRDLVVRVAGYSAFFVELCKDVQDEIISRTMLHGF
Conditions: not given
As for `OC1C=CCN(CC2CC2)C1` (centres unmarked) [drawing 188], the half-inhibitory concentration (IC50) was 76 µM.

As for `OC1C=CCN(CC2CCCCC2)C1` (centres unmarked) [drawing 189], 24 µM corresponded to half-maximal inhibition (IC50).

`CC(C)N1CC=CC(O)C1` (centres unmarked) [drawing 191]: the half-maximal inhibitory concentration (IC50) worked out at 110 µM.

In turn, `OC1C=CCN(C2CCC2)C1` (centres unmarked) [drawing 192] gave an IC50 of 203 µM.

As for `CC1CCCC1N1CC=CC(O)C1` (centres unmarked) [drawing 193], the “inhibition at 10 μM” value was “No inhibition at 10 μM”.

`CC1CCCC1N1CC=C[C@H](O)C1` (some centres unmarked) [drawing 194]: the “inhibition at 10 μM” value was “No inhibition at 10 μM”.

On to `CC1CCCC1N1CC=C[C@@H](O)C1` (some centres unmarked) [drawing 195], for which the “inhibition at 10 μM” value was “No inhibition at 10 μM”.

In turn, `OC1C=CCN(C2CCCCC2)C1` (centres unmarked) [drawing 196] gave a 50% inhibitory concentration (IC50) of 63 µM.

`OC1C=CCN(C2CCCCCC2)C1` (centres unmarked) [drawing 197] came in with a concentration for half-maximal inhibition (IC50) of 14 µM.

Consider `CN1CCCC1CO` (centres unmarked) [drawing 200], for which the half-maximal inhibitory concentration (IC50) came to 513 µM.

As to `C=CC(O)CN(C)C` (centres unmarked) [drawing 201], half-maximal inhibition (IC50) required 23 µM.

Still in this assay, the particulars now being: read-out: IC50 CutC.
For `CN1CCC(O)C1` (centres unmarked) [drawing 176], the IC50 came out at 844 µM.

As for `CN1CCC(O)CC1` [drawing 179], the IC50 is 7010 µM.

Take `CN1CCCC(O)CC1` (centres unmarked) [drawing 180]: the concentration for half-maximal inhibition (IC50) came to 2600 µM.

Take `C[N+]1(C)CC=CC(O)C1` (centres unmarked) [drawing 185]: the IC50 is 7 µM.

For the compound `CC1=CC(O)CN(C)C1` (centres unmarked) [drawing 186], the IC50 is 422 µM.

Regarding `CCCN1CC=CC(O)C1` (centres unmarked) [drawing 187], the half-maximal inhibitory concentration (IC50) was determined as 141 µM.

In the case of `OC1C=CCN(Cc2ccccc2)C1` (centres unmarked) [drawing 190], the 50% inhibitory concentration (IC50) amounted to 100 µM.

Regarding `OC1C=CCCC1` (centres unmarked) [drawing 198], the IC50 amounted to 709 µM.

On to `OC1C=CCOC1` (centres unmarked) [drawing 199], for which the IC50 was 2890 µM.

A further assay deals with E. coli MS 200-1. As to the kind of experiment: Inhibition of TMA production in whole cells (LC-MS/MS assay for choline TMA-lyase activity, d9-TMA from d9-choline). The class given is cell-based. Particulars: Escherichia coli, MS2001; Table 3; TMA generation, 1 mM choline-d9, anaerobic, 3.5 h, 37° C.; read-out: EC50 against E. coli MS200-1.
As to `C=CC(O)CN(C)C` (centres unmarked) [drawing 174], the half-maximal effective concentration (EC50) worked out at 70 µM.

Another assay concerns Klebsiella sp. MS92-3. As to the kind of experiment: Choline TMA-lyase activity (TMA generation) in cut gene cluster-harboring bacteria. Type of assay: cell-based. Conditions: 1 mM choline-d9, 3.5 hours, 37° C., read-out: EC50 against Klebsiella sp. MS92-3.
For `CN1CC=CC(O)C1` (centres unmarked) [drawing 203], the EC50 was 5 µM.

For `CN1CC=C[C@H](O)C1` [drawing 204], the EC50 worked out at 4 µM.

Consider `CN1CC=C[C@@H](O)C1` [drawing 205], for which the EC50 stood at 17 µM.
